Measured values: patent US6235769A, “Methods of preventing and treating neurological disorders with compounds that modulate the function of the C-RET receptor protein tyrosine kinase” (Sugen, Inc., priority 1998, dated 2001)

What was measured:
Type in all cases: cell-based
FLK-1 receptor = assay: FLK-1 ELISA, catalytic activity of the FLK-1 receptor in FLK-1/NIH3T3 cells; conditions: concentration that yielded a two-hundred percent increase in catalytic activity in the FLK-1 ELISA
Procedure: An enzyme linked immunosorbant assay (ELISA) can be conducted to measure the catalytic activity of the FLK-1 receptor and more specifically, the inhibition or activation of indolinone compounds of the catalytic activity of the FLK-1 receptor. The following assay was conducted to measure catalytic activity of the FLK-1 receptor in FLK-l/NIH3T3 cells.
One skilled in the art can adapt such a procedure to other receptor tyrosine protein kinases to identify compounds that modulate the function of the receptor.
This type of assay can be developed for nearly any RPTK using well known techniques utilized by persons of ordinary skill in the art. The FLK-1/NIH3T3 cell lines are also created by techniques well known to those skilled in the art. The NIH3T3 cells were stably transfected with gene constructs containing the FLK-1 gene. The nucleic acid vectors used for this type of procedure are commonly and commercially available to those skilled in the art. The methods of cloning the genes of interest into these nucleic acid vectors and the methods of transfecting these nucleic acid constructs into cells are also well known to those skilled in the art. Sambrook, Fritsch, Maniatis, Molecular Cloning, A Laboratory Manual 2nd Ed., Cold Spring Harbor Laboratory Press, 1989.
1. Coat Corning 96-well ELISA plates with 1.0 μg per well Cappel Anti-rabbit IgG antibody in 0.1 M Na2 CO3 pH 9.6. Bring final volume to 150 μL per well. Coat plates overnight at 4° C. Plates can be kept up to two weeks when stored at 4° C.
2. Grow cells in Growth media (DMEM, supplemental with 2.0 mM L-Glutamine, 10% FBS) in suitable culture dishes until confluent at 37° C., 5% CO2.
3. Harvest cells by trypsinization and seed in Corning 25850 polystyrene 96-well roundbottom cell plates, 25.000 cells/well in 200 μL of growth media.
4. Grow cells at least one day at 37° C., 5% CO2.
5. Wash cells with D-PBS 1×.
6. Add 200 μL/well of starvation media (DMEM, 2.0 mM 1-Glutamine, 0.1% FBS). Incubate overnight at 37° C., 5% CO2.
7. Dilute Compounds/Extracts 1:20 in polypropylene 96 well plates using starvation media. Dilute dimethylsulfoxide 1:20 for use in control wells.
8. Remove starvation media from 96 well cell culture plates and add 162 μL of fresh starvation media to each well.
9. Add 18 μL of 1:20 diluted Compound/Extract dilution (from step 7) to each well plus the 1:20 dimethylsulfoxide dilution to the control wells (+/-VEGF), for a final dilution of 1:200 after cell stimulation. Final dimethylsulfoxide is 0.5%. Incubate the plate at 37° C., 5% CO2 for two hours.
10. Remove unbound antibody from ELISA plates by inverting plate to remove liquid. Wash 3 times with TBSW+0.5% ethanolamine, pH 7.0. Pat the plate on a paper towel to remove excess liquid and bubbles.
11. Block plates with TBSW+0.5% Ethanolamine, pH 7.0, 150 μL per well. Incubate plate thirty minutes while shaking on a microtiter plate shaker.
12. Wash plate 3 times as described in step 10.
13. Add 0.5 μg/well affinity purified […] polyclonal rabbit antiserum. Bring final volume to 150 μL/well with TBSW+0.5% ethanolamine pH 7.0. Incubate plate for thirty minutes while shaking.
14. Add 180 μL starvation medium to the cells and stimulate cells with 20 μL/well 10.0 mM sodium ortho vanadate and 500 ng/mL VEGF (resulting in a final concentration of 1.0 mM sodium ortho vanadate and 50 ng/mL VEGF per well) for eight minutes at 37° C., 5% CO2. Negative control wells receive only starvation medium.
15. After eight minutes, media should be removed from the cells and washed one time with 200 μL/well PBS.
16. Lyse cells in 150 μL/well HNTG while shaking at room temperature for five minutes. HNTG formulation includes sodium ortho vanadate, sodium pyro phosphate and EDTA.
17. Wash ELISA plate three times as described in step 10.
18. Transfer cell lysates from the cell plate to ELISA plate and incubate while shaking for two hours. To transfer cell lysate pipette up and down while scrapping the wells.
19. […]

chicken trkA receptor = assay: Receptor phosphorylation in cells expressing both rat and chicken trkA, chick receptor; conditions: NGF or CTA
Procedure: (§1) The assumption was tested by expressing both rat and chicken trkA receptors in the same cell and activating them with either neurotrophic growth factor (NGF), which binds both receptors, or with the CTA antibody, which binds only the chick receptor. […] The effects of the CTA antibody preparation were therefore not attributable to activation of endogenous trkA receptors.
(§2) The conditions for immunoprecipitation and immunoblotting used in the experiments were described previously (Clary et al., 1994, Mol. Biol. Cell 5: 549-563) with modifications as follows. Immunoblots were performed in Tris-buffered saline containing 0.1% Triton X-100, and filter blocking and antibody incubations were performed in the same buffer with 1% BSA. In other experiments, anti-phosphotyrosine detection was performed with biotinylated-4G10 monoclonal antibody followed by a peroxidase avidin-biotin complex. Other antibodies were detected with peroxidase coupled anti-mouse IgG, anti-rabbit IgG, or protein A as indicated. All peroxidase conjugates were detected using a chemiluminescence protocol (Pierce Chemical Co. Rockford, Ill.).

[1] = system: c-ret chimera (human C-RET transmembrane and cytoplasmic domains fused to chicken TRKA extracellular domain); assay: Chimeric receptor activation in infected C6 glioma cells (anti-phosphotyrosine immunoblot), c-ret chimera; conditions: 50 ng/mL NGF, five minutes
Procedure: (§3) DNA constructs were generated, which encoded the transmembrane and cytoplasmic domains from human MCK-10, C-RET, mouse SEK, and rat TRKA fused to the chicken TRKA extracellular domain. These chimeric receptor constructs were then inserted into the adenovirus transfer vector, and recombinant viruses were generated and purified. Rat C6 glioma cells were infected with the recombinant viruses, and the resulting chimeric receptors were analyzed via immunoblot analysis.
(§4) The ability to activate the chimeras was evaluated by incubating the infected C6 monolayers with 50 ng/mL NGF for five minutes. The receptors were immunoprecipitated with the CTA antibody, immunoblotted, and probed either with the anti-phosphotyrosine antibody 4G10 or with the CTA antibody preparation.
(§5) C6 glioma cells were grown in Ham's Flo medium containing 10% fetal calf serum; for receptor activation experiments the medium was changed to 0.5% fetal calf serum 12 hours prior to stimulation.

[2] = system: sek chimera (mouse SEK transmembrane and cytoplasmic domains fused to chicken TRKA extracellular domain); assay: Chimeric receptor activation in infected C6 glioma cells (anti-phosphotyrosine immunoblot), sek chimera; conditions: 50 ng/mL NGF, five minutes
Procedure: as §3, §4, §5

rat trkA receptor = assay: Receptor phosphorylation in cells expressing both rat and chicken trkA, rat receptor
Procedure: as §1, §2

[3] = system: MCK-10 chimera (human MCK-10 transmembrane and cytoplasmic domains fused to chicken TRKA extracellular domain); assay: Chimeric receptor activation in infected C6 glioma cells (anti-phosphotyrosine immunoblot), MCK-10 chimera; conditions: 50 ng/mL NGF, before or after incubation
Procedure: as §3, §4, §5

Compound	EC200 (FLK-1 receptor)	further results
Cc1cc(C)c(/C=C2\C(=O)Nc3ccc(CCC(=O)O)cc32)[nH]1 [Indolinone 3]	32 µM	
CCc1cc(CC)c(/C=C2\C(=O)Nc3ccc(C(=O)O)cc32)[nH]1 [Indolinone 2]	2.8 µM	
Cc1ccc(/C=C2\C(=O)Nc3ccc(C(=O)O)cc32)s1 [Indolinone 6]	46 µM	
Cc1ccc(/C=C2\C(=O)Nc3ccc(CCC(=O)O)cc32)s1 [Indolinone 5]	> 100 µM	
Cc1cc(C)c(/C=C2\C(=O)Nc3ccc(C(=O)O)cc32)[nH]1 [Indolinone 4]	2.8 µM	
CC(C)c1cc(C(C)C)c(/C=C2\C(=O)Nc3ccc(C(=O)O)cc32)[nH]1 [Indolinone 1]	10 µM	
NGF: nerve growth factor, which binds to the extracellular region of the TRK receptor		phosphorylation of the chick receptor (chicken trkA receptor): became phosphorylated; activation of c-ret chimera [1]: NGF-dependent activation of the c-ret and sek chimeras was detected; activation of sek chimera [2]: NGF-dependent activation of the c-ret and sek chimeras was detected; activation of the rat receptor (rat trkA receptor): activation of the rat receptor was detected only after NGF addition; phosphotyrosine of MCK-10 chimeric protein [3]: Phosphotyrosine was not detected
